Here are results for one molecule from patent US11191809B2, “Composition in powder form comprising iron-milk protein complexes and probiotic bacteria” (NESTEC S.A., priority 2016, dated 2021).

The assay has as its system probiotic bacteria. Nature of the assay: Viability of probiotic bacteria with iron sources (general finding of the inventors). It counts as cell-based. The settings on record: general statement; reconstitution of powder with a liquid.

With `O.O.O.O.O.O.O.O=S(=O)([O-])[O-].[Fe+2]` [ferrous sulphate heptahydrate], the “loss of viability of probiotic bacteria” value is recorded as “significant loss of viability”.
